From ChEMBL document CHEMBL5126551, “Spiral molecules with antimalarial activities: A review” (Eur J Med Chem, 2022)
Converted amounts (≈) assume the structure as drawn.

What was measured:
Plasmodium falciparum [1] = experiment: Antimalarial activity against chloroquine resistant Plasmodium falciparum K1 assessed as inhibition of parasite growth by [3H]-hypoxanthine incorporation assay; type: functional, organism-based
Plasmodium falciparum [2] = experiment: Antimalarial activity against chloroquine sensitive Plasmodium falciparum NF54 assessed as inhibition of parasite growth by [3H]-hypoxanthine incorporation assay; type: functional, organism-based
Plasmodium falciparum [3] = experiment: (§1) Antimalarial activity against chloroquine sensitive Plasmodium falciparum 3D7 infected in human erythrocyte assessed as inhibition of parasite growth preincubated with compound for 24 hrs followed by hypoxanthine addition and measured after 24 hrs by [3H]-hypoxanthine incorporation based liquid scintillation counter; type: functional, organism-based; conditions: 3D7, Erythrocyte
Plasmodium falciparum [4] = experiment: as §1, with “resistant” for “sensitive”, “K1” for “3D7”; type: functional, organism-based
Plasmodium berghei [5] = experiment: Antimalarial activity against Plasmodium berghei GFP ANKA infected in NMRI mouse assessed as reduction in blood parasitemia level measured on day 4 by FACS analysis; type: functional, organism-based
Plasmodium falciparum [6] = experiment: Antimalarial activity against chloroquine-sensitive Plasmodium falciparum 3D7 infected in human erythrocyte assessed as inhibition of parasite growth incubated for 66 hrs by [3H]-hypoxanthine incorporation assay based liquid scintillation spectrometric method; type: functional, organism-based; conditions: 3D7, Erythrocyte
Plasmodium falciparum [7] = experiment: Antimalarial activity against Plasmodium falciparum Dd2 assessed as inhibition of parasite growth; type: functional, organism-based
Plasmodium falciparum [8] = experiment: Antimalarial activity against Plasmodium falciparum 3D7 assessed as inhibition of parasite growth; type: functional, organism-based
Plasmodium falciparum [9] = experiment: Antimalarial activity against Plasmodium falciparum 3D7 infected in human erythrocytes assessed as reduction in parasite growth measured after 72 hrs by microscopic analysis; type: functional, organism-based; conditions: 3D7, Erythrocyte
Plasmodium falciparum [10] = experiment: Antimalarial activity against Plasmodium falciparum Dd2 infected in human erythrocytes assessed as reduction in parasite growth measured after 72 hrs by microscopic analysis; type: functional, organism-based; conditions: Dd2, Erythrocyte
Plasmodium falciparum [11] = experiment: Antimalarial activity against highly chloroquine resistant Plasmodium falciparum FcM29 assessed as inhibition of parasite growth measured after 48 hrs by classical radioactive microdilution method; type: functional, organism-based; conditions: FcM29, 48 h
Plasmodium falciparum [12] = experiment: Antimalarial activity against chloroquine resistant Plasmodium falciparum FcR3 assessed as inhibition of parasite growth measured after 48 hrs by classical radioactive microdilution method; type: functional, organism-based; conditions: FcR3, 48 h
Plasmodium falciparum [13] = experiment: Antimalarial activity against chloroquine sensitive Plasmodium falciparum infected in human red blood cells assessed as inhibition of liberation and reinvasion steps of the erythrocytes by parasites measured after 72 hrs by titrated hypoxanthine incorporation assay; type: functional, organism-based, Red blood cell; conditions: Erythrocyte
Plasmodium falciparum [14] = experiment: Antimalarial activity against chloroquine resistant Plasmodium falciparum FcB1 infected in human red blood cells assessed as inhibition of liberation and reinvasion steps of the erythrocytes by parasites measured after 72 hrs by titrated hypoxanthine incorporation assay; type: functional, organism-based, Red blood cell; conditions: FcB1, Erythrocyte
Plasmodium falciparum [15] = experiment: Antimalarial activity against chloroquine-resistant Plasmodium falciparum W2 assessed as inhibition of parasite growth; type: functional, organism-based
Plasmodium falciparum [16] = experiment: Antimalarial activity against chloroquine-sensitive Plasmodium falciparum D6 assessed as inhibition of parasite growth; type: functional, organism-based
Plasmodium falciparum [17] = experiment: Antimalarial activity against chloroquine-resistant Plasmodium falciparum W2 assessed as inhibition of parasite growth by parasite lactate dehydrogenase assay; type: functional, organism-based
Plasmodium falciparum [18] = experiment: Antimalarial activity against chloroquine-sensitive Plasmodium falciparum D6 assessed as inhibition of parasite growth by parasite lactate dehydrogenase assay; type: functional, organism-based
Plasmodium berghei [19] = experiment: Antiplasmodial activity against luciferase expressing hepatic stage Plasmodium berghei sporozoites infected in human Huh-7 cells assessed as inhibition of parasite infection preincubated with cells for 1 hrs followed by parasite infection and measured after 48 hrs by bioluminescence assay; type: functional, organism-based
Plasmodium falciparum [20] = experiment: Antimalarial activity against Plasmodium falciparum K1 assessed as inhibition of parasite growth; type: functional, organism-based
Plasmodium falciparum [21] = experiment: Antimalarial activity against chloroquine and quinine sensitive Plasmodium falciparum assessed as inhibition of parasite growth; type: functional, organism-based
[22] = Metabolic stability in Sprague-Dawley rat assessed as AUC(0 to t) of 97-63 metabolite by LC-MS/MS analysis; type: ADME
[23] = Metabolic stability in Sprague-Dawley rat assessed as Tmax of 97-63 metabolite by LC-MS/MS analysis; type: ADME
[24] = Metabolic stability in Sprague-Dawley rat assessed as AUC(0 to infinity) of 97-63 metabolite by LC-MS/MS analysis; type: ADME; set-up: time infinity
[25] = Metabolic stability in Sprague-Dawley rat assessed as Cmax of 97-63 metabolite by LC-MS/MS analysis; type: ADME
[26] = Metabolic stability in Sprague-Dawley rat assessed as half-life of 97-63 metabolite by LC-MS/MS analysis; type: ADME
[27] = Apparent oral volume of distribution in Sprague-Dawley rat by LC-MS/MS analysis; type: ADME; conditions: in vivo
Plasmodium falciparum [28] = experiment: Antimalarial activity against chloroquine-resistant Plasmodium falciparum K14 infected in human red blood cells assessed as inhibition of parasite growth incubated for 42 hrs by [3H]-hypoxanthine incorporation assay; type: functional, organism-based, Red blood cell; conditions: K14, Erythrocyte
Plasmodium falciparum [29] = experiment: Antimalarial activity against chloroquine-resistant Plasmodium falciparum FCR3 infected in human erythrocytes assessed as inhibition of parasite growth incubated for 48 hrs by [3H]-hypoxanthine incorporation assay; type: functional, organism-based
Plasmodium falciparum [30] = experiment: Antimalarial activity against chloroquine-sensitive Plasmodium falciparum 3D7 infected in human erythrocytes assessed as inhibition of parasite growth incubated for 48 hrs by parasite lactate dehydrogenase based colorimetric assay; type: functional, organism-based; conditions: 3D7, 48 h

Structure (SMILES): c1cc(C2CCC3(CC2)OOC2(O3)C3CC4CC(C3)CC2C4)ccc1OCCN1CCOCC1 (stereo not given)
- IC50 (Plasmodium falciparum [1]): 2.8 ng/mL (≈ 5.96 nM)
- IC50 (Plasmodium falciparum [2]): 2.8 ng/mL (≈ 5.96 nM)

Structure (SMILES): CN1CCN(C2CCN(C(=O)CC3CCC4(CC3)OOC3(OO4)C4CC5CC(C4)CC3C5)CC2)CC1 (stereo not given)
- IC50 (Plasmodium falciparum [3]): 0.8 nM
- IC50 (Plasmodium falciparum [4]): 1.1 nM
- EC50 (Plasmodium berghei [5]): 1.33 mg/kg
- EC90 (Plasmodium berghei [5]): 4.18 mg/kg

Structure (SMILES): CCCCCCCCCCCCCCC[C@@H](O)CC1(OC)CCC2(C=CC(=O)C=C2)O1 (stereo not given in full)
- IC50 (Plasmodium falciparum [6]): 480 nM

Structure (SMILES): C1CCCCCC2(CCCCC1)OOCCCOO2
- EC50 (Plasmodium falciparum [7]): 897 nM
- EC50 (Plasmodium falciparum [8]): 268 nM

Structure (SMILES): OCCCCCCC1COOC2(CCCCCCCCCCC2)OOC1
- EC50 (Plasmodium falciparum [9]): 332 nM
- EC50 (Plasmodium falciparum [10]): 897 nM

Structure (SMILES): CC1(C)COC2(CCC(NC3CCC(Nc4ccnc5cc(Cl)ccc45)CC3)CC2)OO1 (stereo not given)
- IC50 (Plasmodium falciparum [11]): 10 nM
- IC50 (Plasmodium falciparum [12]): 12 nM

Structure (SMILES): Clc1ccc2c(NCCNC3CCC4(CC3)OOC3(c5ccccc5)CC(c5ccccc5)=CC3O4)ccnc2c1 (stereo not given)
- IC50 (Plasmodium falciparum [13]): 8 nM
- IC50 (Plasmodium falciparum [14]): 21 nM

Structure (SMILES): CC(=O)O[C@H]1C[C@H]2[C@@H]([C@H](OC(C)=O)C[C@@H]3CC4(CC[C@@]32C)OOC2(CCC(C)CC2)OO4)[C@@H]2CC[C@H]([C@H](C)CCC(N)=O)[C@@]12C (stereo not given in full)
- IC50 (Plasmodium falciparum [15]): 0.58 nM
- IC50 (Plasmodium falciparum [16]): 1.17 nM

Structure (SMILES): Cc1ccc(S(=O)(=O)N2CCC3(CC2)OOC(C2CCC(C)CC2)OO3)cc1 (stereo not given)
- IC50 (Plasmodium falciparum [17]): 830 nM
- IC50 (Plasmodium falciparum [18]): 700 nM

Structure (SMILES): Cc1ccc(C2OOC3(CCN(S(=O)(=O)c4ccccc4)CC3)OO2)cc1
- IC50 (Plasmodium falciparum [17]): > 200 nM
- IC50 (Plasmodium falciparum [18]): 300 nM

Structure (SMILES): CC(C)(C)C(=O)C1C(c2ccccc2)(c2ccccc2)N=NC12C(=O)N1[C@@H](C(=O)OC(c3ccccc3)c3ccccc3)C(C)(C)S[C@@H]12 (stereo not given in full)
- IC50 (Plasmodium berghei [19]): 3320 nM

Structure (SMILES): COC(=O)C12C=C(OC)[C@]3(Cl)C(C)(C=C(C4=C[C@H](O)[C@@H]5O[C@]5(CC=C(C)C)[C@@H]4O)[C@]3(O)C13OC(=O)c1c(O)cc(C)cc1O3)C2 (stereo not given in full)
- IC50 (Plasmodium falciparum [20]): 2710 nM

Structure (SMILES): CC(C)(N)CNC(=O)C(=O)OC1CCCC2(C1)OOC1(O2)C2CC3CC(C2)CC1C3 (stereo not given)
- IC50 (Plasmodium falciparum [1]): 1 ng/mL (≈ 2.37 nM)
- IC50 (Plasmodium falciparum [2]): 0.91 ng/mL (≈ 2.15 nM)

Structure (SMILES): COC(=O)C1=CO[C@@H](C)[C@@H]2CN3CC[C@@]4(C(=O)Nc5ccccc54)[C@H]3C[C@H]12
- IC50 (Plasmodium falciparum [15]): 17000 ng/mL

Structure (SMILES): CCOC(=O)C1=C2N=C(c3ccncc3)NN2C2=C(C(=O)CCC2)C12C(=O)Nc1ccccc12 (stereo not given)
- IC50 (Plasmodium falciparum [21]): 295 nM

Structure (SMILES): O=C(O)CC1CCC2(CC1)OOC1(O2)C2CC3CC(C2)CC1C3 (stereo not given)
- IC50 (Plasmodium falciparum [1]): 34 ng/mL (≈ 105 nM)
- IC50 (Plasmodium falciparum [2]): 45 ng/mL (≈ 140 nM)

Structure (SMILES): C=C(c1ccc(OC(C)(C)COC(=O)CCC(=O)O)cc1)C1OCC2(OO1)C1CC3CC(C1)CC2C3 (stereo not given)
- AUCt [22]: 9100 ng·h/mL
- Tmax [23]: 2.2 h
- AUC [24]: 9150 ng·h/mL
- Cmax [25]: 1350 ng/mL
- t1/2 [26]: 9.27 h
- Vd/F [27]: 7.81 L/kg

Structure (SMILES): COC(=O)C12C=C(OC)[C@@]3(Cl)C(C)(C=C(C4=C[C@H](O)[C@@H]5O[C@]5(CC=C(C)C)[C@@H]4O)[C@@]3(O)C13OC(=O)c1c(O)cc(C)cc1O3)C2 (stereo not given in full)
- IC50 (Plasmodium falciparum [20]): 5730 nM

Structure (SMILES): CCOc1ccc(N2C(=O)C3(c4ccccc4Cc4ccccc43)C23c2ccccc2-c2ccccc23)cc1
- IC50 (Plasmodium falciparum [28]): 5000 nM

Structure (SMILES): COc1cc([C@@H]2c3cc(Cl)ccc3NC3(C(=O)Nc4ccccc43)[C@H]2C)ccc1O (stereo not given in full)
- IC50 (Plasmodium falciparum [29]): 1670 nM
- IC50 (Plasmodium falciparum [30]): 1800 nM

Structure (SMILES): CC(C)OC(=O)C1=C2N=C(c3ccncc3)NN2C2=C(C(=O)CCC2)C12C(=O)Nc1ccccc12 (stereo not given)
- IC50 (Plasmodium falciparum [21]): 246 nM
